{"source": "patent US9156860B2", "about": "“Boron-containing small molecules” (Anacor Pharmaceuticals, Inc., priority 2011, dated 2015)", "system": "adult American dog tick (Dermacentor variabilis)", "assay": "Example 4: efficacy against adult American dog tick infestations on dogs", "type": "in vivo", "settings": "for therapeutic efficacy: 24 hour post-treatment", "protocol": "The therapeutic (knockdown) and residual efficacy of 7, administered orally at a point dosages of 5 and 25 mg/kg bodyweight, was evaluated against adult American dog tick (D. variabilis) and cat flea (C. felis) infestations on dogs. Sixteen (16) male and female beagle dogs were allocated to one of four treatment groups: Untreated control group (n=4 dogs); 7, 5 mg/kg liquid oral dosage form (n=4 dogs); 7, 25 mg/kg liquid oral dosage form (n=4 dogs); and 7, 25 mg/kg solid oral dosage form. Liquid dosage forms were prepared by dissolving 7 in a solution of 55% polyethylene glycol-300, 35% propylene glycol and 10% water at 25 mg/ml. Solid oral dosage form was prepared by thoroughly mixing 7 with microcrystalline cellulose and croscarmellose sodium (50:47:3, w/w) and placing into size 00 gelatin capsules. On Day 0, all dogs were orally administered 7 at the prescribed point dosages. Twenty-four (24) hours before treatment (Day −1), all dogs were infested with approximately 50 unfed, adult-stage American dog ticks (D. variabilis; approximately 50% male and 50% female). […] For all groups, dogs were re-infested with approximately 50 unfed, adult D. variabilis ticks on Days 5 and 12, with tick classification, counts and removal on Days 7 and 14 (approximately 48 hours after each infestation). For negative control and 7 (25 mg/kg solid oral dosage form) groups, dogs were re-infested with approximately 50 unfed, adult D. variabilis ticks on Days 19 and 28, with tick classification, counts and removal on Days 21 and 30. Immediately following removal of ticks on Day 30, dogs in the negative control and 7 (25 mg/kg solid oral dosage form) groups were infested with approximately 100 unfed, adult cat fleas (C. felis). Flea counts were conducted approximately 48 hours later, on Day 32.\nThe total number of live ticks or fleas (normal plus moribund classification) present on each dog was determined for each interval, and this number was transformed using the natural logarithm transformation plus one (Ln count+1); addition of one to each count served to adjust for counts that were zero. Geometric mean (GM) group tick or flea counts were obtained via back-transformation of group mean transformed counts and subtracting one. The negative control group was used for comparison to 7 groups for the calculation of percent efficacy (% reduction in live tick or flea counts). GM percent efficacy of treatments was calculated using the following formula: […]", "key": {"[1]": {"settings": "5 mg/kg oral, liquid dosage form, Day 2"}, "[2]": {"settings": "5 mg/kg oral, liquid dosage form, Day 7"}, "[3]": {"settings": "5 mg/kg oral, liquid dosage form, Day 14"}}, "data": [{"smiles": "CC1(C)OB(O)c2ccc(C3=NOC(c4cc(Cl)c(Cl)c(Cl)c4)(C(F)(F)F)C3)cc21", "note": "(racemic) [Compound 7, 3,3-Dimethyl-5-(5-(3,4,5-trichlorophenyl)-5-(trifluoromethyl)-4,5-dihydroisoxazol-3-yl)benzo[c][1,2]oxaborol-1(3H)-ol]", "values": [{"measurement": "therapeutic and residual efficacy", "setting": "5 mg/kg liquid oral dosage form, all intervals", "value": "< 70", "unit": "%"}, {"measurement": "% efficacy", "setting": "[1]", "value": "(68.2) %"}, {"measurement": "Geometric mean group live tick count", "setting": "[1]", "value": 10.6}, {"measurement": "% efficacy", "setting": "[2]", "value": "(0.0) %"}, {"measurement": "Geometric mean group live tick count", "setting": "[2]", "value": 36.5}, {"measurement": "% efficacy", "setting": "[3]", "value": "(0.0) %"}, {"measurement": "Geometric mean group live tick count", "setting": "[3]", "value": 36.8}, {"measurement": "therapeutic efficacy", "setting": "25 mg/kg oral, liquid dosage form", "value": 100, "unit": "%"}, {"measurement": "Geometric mean group live tick count", "setting": "25 mg/kg oral, liquid dosage form, Day 2", "value": 0.0}, {"measurement": "Geometric mean group live tick count", "setting": "25 mg/kg oral, liquid dosage form, Day 7", "value": 2.6}, {"measurement": "Geometric mean group live tick count", "setting": "25 mg/kg oral, liquid dosage form, Day 14", "value": 16.9}, {"measurement": "therapeutic efficacy", "setting": "25 mg/kg oral, solid dosage form", "value": 100, "unit": "%"}, {"measurement": "Geometric mean group live tick count", "setting": "25 mg/kg oral, solid dosage form, Day 2", "value": 0.0}, {"measurement": "Geometric mean group live tick count", "setting": "25 mg/kg oral, solid dosage form, Day 7", "value": 0.7}, {"measurement": "Geometric mean group live tick count", "setting": "25 mg/kg oral, solid dosage form, Day 14", "value": 6.3}, {"measurement": "Geometric mean group live tick count", "setting": "25 mg/kg oral, solid dosage form, Day 21", "value": 6.8}, {"measurement": "Geometric mean group live tick count", "setting": "25 mg/kg oral, solid dosage form, Day 30", "value": 10.7}]}]}
